From patent US11179501B2, “Bone morphogenetic protein pathway activation, compositions for ossification, and methods related thereto” (Emory University, priority 2011, dated 2021)

Columns and labels:
[1] = tested on: C2C12 cells; experiment: Alkaline phosphatase (ALP) assay: potentiation of BMP-2-induced ALP activity; settings: for Fold increase in BMP-Potentiated ALP activity over BMP control: C2C12 cells, 50 ng/ml BMP-2, 72 hours
Description: (§1) Their activity was evaluated by determining the potentiation of alkaline phosphatase activity in sub-optimal doses of BMP in the presence or absence of exogenously added noggin.
The BMP-potentiating activities of compounds may be evaluated by monitoring several markers of the osteoblastic phenotype corresponding to various time points during phenotype differentiation of C2C12 cells towards terminally differentiated osteoblasts.
The C2C12 cells at passages 5 to 10 were subcultured in T-75 cm^2 flasks in DMEM supplemented with 10% FBS at 37° C. in 5% CO2 with humidification. When the flasks reached 80% confluence, the cells were trypsinized and seeded in triplicate.
The C2C12 cells were plated at 200,000 cells/well in 6-well plates and grown overnight in DMEM containing 10% FBS. On day 2, the culture medium was replaced with DMEM containing 2% FBS and the cells were treated with various concentrations of compound for 24 hours. On day 3, the culture medium was replaced with DMEM containing 2% FBS and the cells were treated with 50 ng/ml of BMP-2 and various concentrations of compound for 72 hours. The cells were washed with phosphate-buffered saline (PBS) and lysed by addition of lysis buffer (10 mM Tris-HCl pH 8.0, 1 mM MgCl2 and 1.0% Triton X-100). The cell lysates were centrifuged for 5 minutes at 13,000×g. The supernatant was removed and the aliquots were assayed for ALP activity and protein amount. The ALP activity was measured in triplicate using an ALP assay kit (Sigma-Aldrich, St. Louis, Mo.) in microtiter plates. The protein amount was determined with Bio-Rad protein assay reagent (Bio-Rad, Hercules, Calif.) using bovine serum albumin (BSA) as a standard. The ALP activity (nmoles of p-nitrophenol per ml) was normalized to the protein amount (nmoles of p-nitrophenol per μg).

[2] = tested on: C2C12 cells; experiment: BMP-Noggin competitive alkaline phosphatase (ALP) assay; assay type: cell-based, Mouse; settings: for Fold increase in Noggin-Inhibition ALP Assay over BMP alone control: BMP-2 90-100 ng/ml plus noggin 100-120 ng/ml, 72 hours; for cell lifting from culture plates: BMP-Noggin competitive ALP assay, low cell number and low yield of protein
Description: as §1
Mouse C2C12 cells and Dulbecco's modified Eagle's medium (DMEM) were purchased from ATCC (Manassas, Va.). The non-heat inactivated fetal bovine serum (FBS) was purchased from HyClone Laboratories, Inc. (Logan, Utah). The C2C12 cells at passages 5 to 10 were subcultured in T-75 cm^2 flasks in DMEM supplemented with 10% FBS at 37° C. in 5% CO2 with humidification. When the flasks reached 80% confluence, the cells were trypsinized and seeded in triplicate.
The C2C12 cells were plated at 200,000 cells/well in 6-well plates and grown overnight in DMEM containing 10% FBS. On day 2, the culture medium was replaced with DMEM containing 2% FBS and the cells were treated with 90-100 ng/ml of BMP-2 (as noted in each experiment), various concentrations of compound, and 100-120 ng/ml of noggin (as noted in each experiment) for 72 hours. The cells were washed with phosphate-buffered saline (PBS) and lysed by addition of lysis buffer (10 mM Tris-HCl pH 8.0, 1 mM MgCl2 and 1.0% Triton X-100). The cell lysates were centrifuged for 5 minutes at 13,000×g. The supernatant was removed and the aliquots were assayed for ALP activity and protein amount. The ALP activity was measured in triplicate using an ALP assay kit (Sigma-Aldrich, St. Louis, Mo.) in microtiter plates. The protein amount was determined with Bio-Rad protein assay reagent (Bio-Rad, Hercules, Calif.) using bovine serum albumin (BSA) as a standard. The ALP activity (nmoles of p-nitrophenol per ml) was normalized to the protein amount (nmoles of p-nitrophenol per μg).

[3] = tested on: Sprague Dawley rats; experiment: Collagen disc implantation with macrolides in rat ectopic model; assay type: in vivo; set-up: Ave. (Xray score): scale not given here; settings: for Ave. (Xray score) / Results (bone, animals with bone of 4): 100 ul, collagen, no BMP-2, 4 weeks
Description: Sprague Dawley rats about 5-6 weeks of age were chest implanted with a collagen disc (diameter of 1.0 cm and height of 2.0 mm; total volume of 150 cubic millimeters) and doses of macrolides in the absence of BMP-2. After 4 weeks the rats were sacrificed and evaluated for bone growth. […] In certain embodiments, the disclosure contemplates local bone formation for fracture repair, segmental bone defects, spine fusion, bone grafting, and regional bone enhancement for osteopenic bones before they fracture (e.g. hip, vertebral body, etc) by deliver locally to induce local bone formation.

SMILES | Fold increase in BMP-Potentiated ALP activity over BMP control [1] | Fold increase in Noggin-Inhibition ALP Assay over BMP alone control [2] | cell lifting from culture plates [2] | also measured
COc1cc(C)c(/C=C/C(C)=C/C=C/C(C)=C/C(=O)O)c(C)c1C [Acitretin, acitretin] | 33 | 3 | – | –
COc1cc(CNC(=O)CCCCC=CC(C)C)ccc1O [Capsaicin, N-(4-hydroxy-3-methoxybenzyl)-8-methylnon-6-enamide] | – | – | caused cell lifting from culture plates | –
O=C(O)CCCc1ccc(N(CCCl)CCCl)cc1 [Chlorambucil, chlorambucil] | 3 | 4 | – | –
Clc1ccccc1C(c1ccccc1)(c1ccccc1)n1ccnc1 [Clotrimazole, 1-[(2-chlorophenyl)diphenylmethyl]-1H-imidazole] | 7 | 4 | – | BMP-induced ALP activity ([1]; nanomolar concentrations, FIG. 5): dose dependent increase
CCC(=O)O[C@]1(C(=O)SCF)[C@H](C)C[C@H]2[C@@H]3C[C@H](F)C4=CC(=O)C=C[C@]4(C)[C@@]3(F)[C@@H](O)C[C@@]21C [Fluticasone Propionate, 6,9-difluoro-11-hydroxy-16-methyl-3-oxo-17-(1-oxopropoxy)-androsta-1,4-diene-17-carbothioic acid S-(fluoromethyl) ester] | 6 | 3 | – | –
C=CCc1ccc(O)c(-c2ccc(O)c(CC=C)c2)c1 [Honokiol, 3′,5-di-2-propen-1-yl-[1,1′-biphenyl]-2,4′-diol] | 5 | 16 | – | –
CC1=C(/C=C/C(C)=C/C=C/C(C)=C\C(=O)O)C(C)(C)CCC1 [Isotretinoin, isotretinoin] | 30 | 3 | – | –
CC(=O)N1CCN(c2ccc(OC[C@H]3CO[C@](Cn4ccnc4)(c4ccc(Cl)cc4Cl)O3)cc2)CC1 [Ketoconazole, 1-(4-(4-(((2R,4S)-2-((1H-imidazol-1-yl)methyl)-2-(2,4-dichlorophenyl)-1,3-dioxolan-4-yl)methoxy)phenyl)piperazin-1-yl)ethanone] | – | – | caused cell lifting from culture plates | –
CC(=O)NC[C@H]1CN(c2ccc(N3CCOCC3)c(F)c2)C(=O)O1 [Linezolid, N-[[(5S)-3-[3-fluoro-4-(4-morpholinyl)phenyl]-2-oxo-5-oxazolidinyl]methyl]-acetamide] | 5 | 3 | – | –
CC[C@H](C)C(=O)O[C@H]1C[C@@H](C)C=C2C=C[C@H](C)[C@H](CC[C@@H]3C[C@@H](O)CC(=O)O3)[C@H]21 [Lovastatin, lovastatin] | – | – | caused cell lifting from culture plates | –
CC1=C(/C=C/C(C)=C/C=C/C(C)=C/C(=O)O)C(C)(C)CCC1 [Retinoic acid, (2E,4E,6E,8E)-3,7-dimethyl-9-(2,6,6-trimethylcyclohexen-1-yl)nona-2,4,6,8-tetraenoic acid] | 11 | 2 | – | –
CC(=O)S[C@@H]1CC2=CC(=O)CC[C@]2(C)[C@H]2CC[C@@]3(C)[C@@H](CC[C@@]34CCC(=O)O4)[C@H]12 [Spironolactone, spironolactone] | 3 | 4 | – | –
C=CCC1C=C(C)CC(C)CC(OC)C2OC(O)(C(=O)C(=O)N3CCCCC3C(=O)OC(/C(C)=C/C3CCC(O)C(OC)C3)C(C)C(O)CC1=O)C(C)CC2OC (stereo not drawn) [Tacrolimus, 5,6,8,11,12,13,14,15, 16,17,18,19,24,25,26,26a-hexadecahydro-5,19-dihydroxy-3-[(1E)-2-[4-hydroxy-3-methoxycyclohexyl]-1-methylethenyl]-14,16-dimethoxy-4,10,12,18-tetramethyl-8-(2-propen-1-yl)-15,19-epoxy-3H-pyrido[2,1-c][1,4]oxaazacyclotricosine-1,7,20,21(4H,23H)-tetrone] | 7 | 5 | – | Ave. (Xray score) ([3]; dose 10 mM): 0; Results (bone, animals with bone of 4) ([3]; dose 10 mM): No bone (0 of 4); Ave. (Xray score) ([3]; dose 15 mM): 0.5; Results (bone, animals with bone of 4) ([3]; dose 15 mM): Bone (1 of 4); Ave. (Xray score) ([3]; dose 20 mM): 3.25; Results (bone, animals with bone of 4) ([3]; dose 20 mM): Bone (3 of 4); Ave. (Xray score) ([3]; dose 25 mM): 4.25; Results (bone, animals with bone of 4) ([3]; dose 25 mM): Bone (4 of 4); Ave. (Xray score) ([3]; dose 30 mM): 2.5; Results (bone, animals with bone of 4) ([3]; dose 30 mM): Bone (3 of 4); Ave. (Xray score) ([3]; dose 35 mM): 4; Results (bone, animals with bone of 4) ([3]; dose 35 mM): Bone (4 of 4); De novo bone formation ([3]; local, collagen disc, chest implant, absence of BMP-2, 4 weeks): De novo bone formation is demonstrated locally
CCCc1nc2c(C)cc(-c3nc4ccccc4n3C)cc2n1Cc1ccc(-c2ccccc2C(=O)O)cc1 [Telmisartan, 4′-((1,7′-dimethyl-2′-propyl-1H,3′H-[2,5′-bibenzo[d]imidazol]-3′-yl)methyl)[1,1′-biphenyl]-2-carboxylic acid] | 3 | 3 | – | –
Nc1ccn([C@@H]2O[C@H](CO)[C@@H](O)[C@@H]2O)c(=O)n1 [cytarabine] | – | – | caused cell lifting from culture plates | –
CCOC(=O)C1=C(C)NC(C)=C(C(=O)OC)C1c1cccc(Cl)c1Cl (stereo not drawn) [felodipine] | – | – | caused cell lifting from culture plates | –
Clc1ccc(CON=C(Cn2ccnc2)c2ccc(Cl)cc2Cl)c(Cl)c1 [oxiconazole nitrate, 1-(2,4-dichlorophenyl)-2-(1H-imidazol-1-yl)ethanone O-(2,4-dichlorobenzyl) oxime] | – | – | caused cell lifting from culture plates | –
